# ± gives the standard deviation of the averaged measurements.
# How the values were obtained:
# Danio rerio embryo [1] = conditions: exposure time: 4 dpf
# Method: (§1)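 Zebrafish embryos (UFZ-OBI strain) were exposed from 2 hpf for 48 h (2 dpf) or 96 h (4 dpf) at 28 °C; spontaneous tail coiling was scored at 25 hpf. Morphological features from automated image analysis (FishInspector), heart rate and locomotor response were fitted with drc models. Quantal endpoints were dichotomised at 2.5 SD from controls and fitted with a log-logistic model; heart rate, pigmentation and STC were normalised to the replicate control mean. Betamethasone was tested as betamethasone dipropionate, diflorasone as diflorasone diacetate.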
# Danio rerio embryo [2] = system: Danio rerio embryo
# Method: as §1
# Danio rerio embryo [3] = conditions: exposure time: 4 dpf; remark: listed apart in the source
# Method: as §1
# Danio rerio embryo [4] = experiment: EC50 Body length_Decrease
# Method: as §1
# Danio rerio embryo [5] = experiment: EC50 Bladder size_Decrease; conditions: exposure time: 4 dpf
# Method: as §1
# Danio rerio embryo [6] = experiment: EC50 Pericard size_Increase; conditions: exposure time: 4 dpf
# Method: as §1
# Danio rerio embryo [7] = experiment: EC50 Yolk sac size_Increase; conditions: exposure time: 4 dpf
# Method: as §1
# Danio rerio embryo [8] = experiment: EC50 Eye-jaw distance_Decrease; conditions: exposure time: 4 dpf
# Method: as §1
# Danio rerio embryo [9] = experiment: EC10 LMR dark; higher = less potent; conditions: exposure time: 4 dpf
# Method: as §1
# Danio rerio embryo [10] = experiment: EC20 LMR dark; higher = less potent; conditions: exposure time: 4 dpf
# Method: as §1
# Danio rerio embryo [11] = experiment: EC10 Heart rate; higher = less potent
# Method: as §1
# Danio rerio embryo [12] = experiment: EC10 Lack of SB; higher = less potent; conditions: exposure time: 4 dpf
# Method: as §1
# Danio rerio embryo [13] = experiment: EC20 Lack of SB; higher = less potent; conditions: exposure time: 4 dpf
# Method: as §1
# Danio rerio embryo [14] = experiment: EC20 Any effect; higher = less potent
# Method: as §1
# Danio rerio embryo [15] = experiment: EC10 Any effect; higher = less potent
# Method: as §1
# Danio rerio embryo [16] = experiment: EC20 Heart rate; higher = less potent
# Method: as §1
# Danio rerio embryo [17] = experiment: EC10 STC decrease; higher = less potent; conditions: exposure time: 25 h
# Method: as §1
# Danio rerio embryo [18] = experiment: EC20 STC decrease; higher = less potent; conditions: exposure time: 25 h
# Method: as §1
# Danio rerio embryo [19] = experiment: EC20 Body length_Decrease; higher = less potent
# Method: as §1
# Danio rerio embryo [20] = experiment: EC10 Body length_Decrease; higher = less potent
# Method: as §1
# Danio rerio embryo [21] = experiment: EC10 Pigmentation increase; higher = less potent; conditions: exposure time: 4 dpf
# Method: as §1
# Danio rerio embryo [22] = experiment: EC10 Bladder size_Decrease; higher = less potent; conditions: exposure time: 4 dpf
# Method: as §1
# Danio rerio embryo [23] = experiment: EC20 Pigmentation increase; higher = less potent; conditions: exposure time: 4 dpf
# Method: as §1
# Danio rerio embryo [24] = experiment: EC20 Bladder size_Decrease; higher = less potent; conditions: exposure time: 4 dpf
# Method: as §1
# Danio rerio embryo [25] = experiment: EC20 Yolk sac size_Increase; higher = less potent; conditions: exposure time: 4 dpf
# Method: as §1
# Danio rerio embryo [26] = experiment: EC20 Pericard size_Increase; higher = less potent; conditions: exposure time: 4 dpf
# Method: as §1
# Danio rerio embryo [27] = experiment: EC10 Yolk sac size_Increase; higher = less potent; conditions: exposure time: 4 dpf
# Method: as §1
# Danio rerio embryo [28] = experiment: EC10 Pericard size_Increase; higher = less potent; conditions: exposure time: 4 dpf
# Method: as §1
# Danio rerio embryo [29] = experiment: EC20 Eye-jaw distance_Decrease; higher = less potent; conditions: exposure time: 4 dpf
# Method: as §1
# Danio rerio embryo [30] = experiment: EC10 Eye-jaw distance_Decrease; higher = less potent; conditions: exposure time: 4 dpf
# Method: as §1
# Danio rerio embryo [31] = experiment: spontaneous tail coiling frequency (coils/min/embryo); higher = more spontaneous movement; conditions: 25 hpf
# Method: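 Spontaneous tail coilings of zebrafish embryos exposed from 2 hpf were recorded at 24-25 hpf in 1-min videos and detected by a KNIME workflow from grey-value variance. Betamethasone was tested as the dipropionate, diflorasone as the diacetate.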
structure (smiles),measurement,setting,value
CNCCC=C1c2ccccc2CCc2ccccc21 [Nortriptyline],EC50 Lack of SB,Danio rerio embryo [1],5.07 µM
same,EC50 Any effect,Danio rerio embryo [2]; exposure time: 2 dpf,50.5 µM
same,EC50 Any effect,Danio rerio embryo [2]; exposure time: 4 dpf,22.1 µM
same,EC50 STC decrease,Danio rerio embryo [2]; exposure time: 25 h,39 µM
same,EC50 LMR dark,Danio rerio embryo [3],10.3 µM
same,EC50 Body length Decrease,Danio rerio embryo [4]; exposure time: 2 dpf,40.6 µM
same,EC50 Bladder size Decrease,Danio rerio embryo [5],5.07 µM
same,EC50 Pericard size Increase,Danio rerio embryo [6],20.4 µM
same,EC50 Yolk sac size Increase,Danio rerio embryo [7],29.2 µM
same,EC50 Eye-jaw distance Decrease,Danio rerio embryo [8],21.5 µM
same,EC10 LMR dark,Danio rerio embryo [9],0.745 µM
same,EC20 LMR dark,Danio rerio embryo [10],1.96 µM
same,EC10 Heart rate,Danio rerio embryo [11]; exposure time: 2 dpf,39.8 µM
same,EC10 Heart rate,Danio rerio embryo [11]; exposure time: 4 dpf,9.66 µM
same,EC10 Lack of SB,Danio rerio embryo [12],4.59 µM
same,EC20 Lack of SB,Danio rerio embryo [13],4.76 µM
same,EC20 Any effect,Danio rerio embryo [14]; exposure time: 2 dpf,36.4 µM
same,EC20 Any effect,Danio rerio embryo [14]; exposure time: 4 dpf,19.1 µM
same,EC10 Any effect,Danio rerio embryo [15]; exposure time: 2 dpf,30 µM
same,EC10 Any effect,Danio rerio embryo [15]; exposure time: 4 dpf,17.5 µM
same,EC20 Heart rate,Danio rerio embryo [16]; exposure time: 2 dpf,79.7 µM
same,EC20 Heart rate,Danio rerio embryo [16]; exposure time: 4 dpf,19.3 µM
same,EC10 STC decrease,Danio rerio embryo [17],3.44 µM
same,EC20 STC decrease,Danio rerio embryo [18],8.4 µM
same,EC20 Body length Decrease,Danio rerio embryo [19]; exposure time: 2 dpf,36.3 µM
same,EC10 Body length Decrease,Danio rerio embryo [20]; exposure time: 2 dpf,34 µM
same,EC10 Pigmentation increase,Danio rerio embryo [21],0.889 µM
same,EC10 Bladder size Decrease,Danio rerio embryo [22],4.59 µM
same,EC20 Pigmentation increase,Danio rerio embryo [23],1.83 µM
same,EC20 Bladder size Decrease,Danio rerio embryo [24],4.76 µM
same,EC20 Yolk sac size Increase,Danio rerio embryo [25],18.7 µM
same,EC20 Pericard size Increase,Danio rerio embryo [26],17.8 µM
same,EC10 Yolk sac size Increase,Danio rerio embryo [27],14.5 µM
same,EC10 Pericard size Increase,Danio rerio embryo [28],16.5 µM
same,EC20 Eye-jaw distance Decrease,Danio rerio embryo [29],18.3 µM
same,EC10 Eye-jaw distance Decrease,Danio rerio embryo [30],16.6 µM
same,spontaneous tail coiling frequency,Danio rerio embryo [31]; 0.3 µM,2.44
same,spontaneous tail coiling frequency,Danio rerio embryo [31]; 3.3 µM,2.01
same,spontaneous tail coiling frequency,Danio rerio embryo [31]; 13.2 µM,2.12 ± 0.15
same,spontaneous tail coiling frequency,Danio rerio embryo [31]; 16.9 µM,1.32
same,spontaneous tail coiling frequency,Danio rerio embryo [31]; 19.8 µM,2.06
same,spontaneous tail coiling frequency,Danio rerio embryo [31]; 29.6 µM,1.39 ± 0.13
same,spontaneous tail coiling frequency,Danio rerio embryo [31]; 33.9 µM,1.27
same,spontaneous tail coiling frequency,Danio rerio embryo [31]; 44.5 µM,1.1
same,spontaneous tail coiling frequency,Danio rerio embryo [31]; 66.7 µM,1.79 ± 0.47
same,spontaneous tail coiling frequency,Danio rerio embryo [31]; 67.8 µM,1.17
same,spontaneous tail coiling frequency,Danio rerio embryo [31]; 100 µM,0.43
same,spontaneous tail coiling frequency,Danio rerio embryo [31]; 100.1 µM,1.13
same,spontaneous tail coiling frequency,Danio rerio embryo [31]; 133.4 µM,0.28
same,spontaneous tail coiling frequency,Danio rerio embryo [31]; 135.6 µM,0
Cc1cc2c(s1)Nc1ccccc1N=C2N1CCN(C)CC1 [Olanzapine],EC50 Lack of SB,Danio rerio embryo [1],9.71 µM
same,EC50 LMR dark,Danio rerio embryo [3],24 µM
same,EC50 Body length Decrease,Danio rerio embryo [4]; exposure time: 4 dpf,43.8 µM
same,EC50 Bladder size Decrease,Danio rerio embryo [5],9.13 µM
same,EC50 Pericard size Increase,Danio rerio embryo [6],53.1 µM
same,EC10 LMR dark,Danio rerio embryo [9],5.65 µM
same,EC20 LMR dark,Danio rerio embryo [10],9.63 µM
same,EC10 Lack of SB,Danio rerio embryo [12],8.09 µM
same,EC20 Lack of SB,Danio rerio embryo [13],8.65 µM
same,EC20 Body length Decrease,Danio rerio embryo [19]; exposure time: 4 dpf,24.7 µM
same,EC10 Body length Decrease,Danio rerio embryo [20]; exposure time: 4 dpf,17.7 µM
same,EC10 Bladder size Decrease,Danio rerio embryo [22],7.17 µM
same,EC20 Bladder size Decrease,Danio rerio embryo [24],7.84 µM
same,EC20 Pericard size Increase,Danio rerio embryo [26],34.1 µM
same,EC10 Pericard size Increase,Danio rerio embryo [28],26.4 µM
same,spontaneous tail coiling frequency,Danio rerio embryo [31]; 5.4 µM,2.35 ± 0.46
same,spontaneous tail coiling frequency,Danio rerio embryo [31]; 8.1 µM,2.37 ± 0.57
same,spontaneous tail coiling frequency,Danio rerio embryo [31]; 12.1 µM,2.38 ± 0.45
same,spontaneous tail coiling frequency,Danio rerio embryo [31]; 18.1 µM,1.89 ± 0.88
same,spontaneous tail coiling frequency,Danio rerio embryo [31]; 27.2 µM,2.465 ± 0.0071
same,spontaneous tail coiling frequency,Danio rerio embryo [31]; 32 µM,2.44 ± 0.63
